This experiment concerns the target T1, Pdr5p (Saccharomyces cerevisiae, UniProt P33302).
T1 construct: gene PDR5; Pdr5p-enriched plasma membranes from strain AD124567
Kind of experiment: ATPase activity (Pi release) in Pdr5p-enriched plasma membranes, Pdr5p-null membranes subtracted. The experiment is classed as biochemical.
T1 sequence (P33302 whole entry): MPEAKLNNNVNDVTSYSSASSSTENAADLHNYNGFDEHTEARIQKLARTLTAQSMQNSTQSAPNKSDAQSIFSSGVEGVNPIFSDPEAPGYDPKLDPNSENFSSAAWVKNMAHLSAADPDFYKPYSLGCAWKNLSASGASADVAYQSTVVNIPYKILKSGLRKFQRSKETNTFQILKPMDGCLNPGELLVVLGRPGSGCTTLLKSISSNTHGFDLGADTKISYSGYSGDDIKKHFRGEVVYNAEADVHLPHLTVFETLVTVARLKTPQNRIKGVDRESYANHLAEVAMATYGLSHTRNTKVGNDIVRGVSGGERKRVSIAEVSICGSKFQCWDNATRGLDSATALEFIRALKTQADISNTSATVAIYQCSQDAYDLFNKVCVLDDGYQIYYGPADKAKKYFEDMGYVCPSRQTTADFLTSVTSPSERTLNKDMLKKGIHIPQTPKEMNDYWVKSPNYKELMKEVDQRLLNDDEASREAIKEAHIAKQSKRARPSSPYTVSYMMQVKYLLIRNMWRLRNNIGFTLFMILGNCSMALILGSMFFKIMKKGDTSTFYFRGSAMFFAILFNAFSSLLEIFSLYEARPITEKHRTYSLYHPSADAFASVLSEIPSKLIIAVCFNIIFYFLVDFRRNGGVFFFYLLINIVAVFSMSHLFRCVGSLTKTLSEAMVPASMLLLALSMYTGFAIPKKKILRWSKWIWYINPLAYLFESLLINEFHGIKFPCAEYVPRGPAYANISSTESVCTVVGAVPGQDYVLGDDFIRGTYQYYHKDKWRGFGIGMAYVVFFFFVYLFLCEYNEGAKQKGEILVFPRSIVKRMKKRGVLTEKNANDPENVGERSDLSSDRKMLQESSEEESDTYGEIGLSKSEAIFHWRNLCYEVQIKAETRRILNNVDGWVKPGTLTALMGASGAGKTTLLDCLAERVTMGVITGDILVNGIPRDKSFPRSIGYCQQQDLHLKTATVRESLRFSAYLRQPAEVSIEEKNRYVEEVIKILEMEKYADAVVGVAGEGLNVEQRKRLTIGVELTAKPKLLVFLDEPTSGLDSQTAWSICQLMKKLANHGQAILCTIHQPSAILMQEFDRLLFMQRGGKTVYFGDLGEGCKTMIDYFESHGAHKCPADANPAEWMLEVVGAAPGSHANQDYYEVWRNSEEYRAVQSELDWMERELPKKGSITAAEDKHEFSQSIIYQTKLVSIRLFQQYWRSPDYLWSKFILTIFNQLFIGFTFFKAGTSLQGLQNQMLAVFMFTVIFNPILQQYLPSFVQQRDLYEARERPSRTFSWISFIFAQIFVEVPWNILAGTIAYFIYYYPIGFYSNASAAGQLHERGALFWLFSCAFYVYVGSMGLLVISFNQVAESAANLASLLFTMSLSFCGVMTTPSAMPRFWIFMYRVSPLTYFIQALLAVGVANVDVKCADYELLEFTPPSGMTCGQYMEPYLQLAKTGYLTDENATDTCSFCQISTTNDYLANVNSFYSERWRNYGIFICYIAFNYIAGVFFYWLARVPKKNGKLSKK
`CCCC[Te]CCCCCNC(=O)c1ccccc1` [compound 5] displayed an IC50 of 1480 ± 320 nM.

`CCCC[Te]CCCNC(=O)c1ccccc1` [compound 2]: the IC50 amounted to 1450 ± 490 nM.

On to `CCCC[Te]CCCCNC(=O)c1ccccc1` [compound 3], for which the half-maximal inhibitory concentration (IC50) is 1740 ± 910 nM.

The compound `CCCC[Te]CCCNC(=O)OC(C)(C)C` [compound 1] yielded an IC50 of 1140 ± 210 nM.

A word on the IC50: it is the point on the concentration scale where inhibition reaches its midpoint. Higher therefore signals lower potency.
